Reference: patent publication US20230108906A1, “SUBSTITUTED BICYCLIC AND TRICYCLIC UREAS AND AMIDES, ANALOGUES THEREOF, AND METHODS USING SAME” (Arbutus Biopharma Corporation, priority 2019, published 2023)

Tested on: HBV rcDNA in HepDE19 cells
Assay: HepDE19 assay with bDNA quantitation of HBV rcDNA
Assay type: cell-based, hepatitis B virus (HBV)
Conditions: Hepatitis B virus, HepDE19, 168 h, inhibition of rcDNA formation in HepDE19 cells (HepG2 derived), Tet-free medium, 7 day incubation, Quantigene 2.0 bDNA readout, top concentration 25 μM; read-out: DE-19bDNA EC50
Summary of the method: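 Cytotoxicity run on replicate plates (5,000 cells/well, 4 days, ATP luminescence, CC50), while antiviral plates (50,000 cells/well) received compound for 7 days after tetracycline withdrawal to induce HBV replication. Top dose 25 μM, 8 points, 0.5% DMSO; rcDNA by branched-DNA assay, % inhibition fitted (4-parameter) for EC50 and EC90.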

SMILES | EC50
CN(C(=O)N1Cc2ccc(Cl)cc2C1)C1CNCc2[nH]c(=O)c3cc(F)c(F)cc3c21 (single isomer, unassigned) [Compound 226, 5-Chloro-N-(8,9-difluoro-6-oxo-1,2,3,4,5,6-hexahydrobenzo[c][1,7]naphthyridin-1-yl)-N-methylisoindoline-2-carboxamide] | 21 µM
CC(C)CN(C(=O)Nc1ccc(F)c(Cl)c1)C1CCCc2[nH]c(=O)cc(C(F)(F)F)c21 (stereo not drawn) [Compound 1, 3-(3-Chloro-4-fluorophenyl)-1-isobutyl-1-(2-oxo-4-(trifluoromethyl)-1,2,5,6,7,8-hexahydroquinolin-5-yl)urea] | 0.52 µM
CN(C(=O)Nc1ccc(F)c(Cl)c1)C1CCCc2[nH]c(=O)cc(C(F)(F)F)c21 (stereo not drawn) [Compound 2, 3-(3-Chloro-4-fluorophenyl)-1-methyl-1-(2-oxo-4-(trifluoromethyl)-1,2,5,6,7,8-hexahydroquinolin-5-yl)urea] | 1.5 µM
O=C(Nc1ccc(F)c(Cl)c1)N(CCCO)C1CCCc2[nH]c(=O)cc(C(F)(F)F)c21 (stereo not drawn) [Compound 3, 3-(3-Chloro-4-fluorophenyl)-1-(3-hydroxypropyl)-1-(2-oxo-4-(trifluoromethyl)-1,2,5,6,7,8-hexahydroquinolin-5-yl)urea] | 1.7 µM
CC(C)CN(C(=O)Nc1ccc(F)c(Cl)c1)C1CCc2[nH]c(=O)cc(C(F)(F)F)c21 (stereo not drawn) [Compound 4, 3-(3-Chloro-4-fluorophenyl)-1-isobutyl-1-(2-oxo-4-(trifluoromethyl)-2,5,6,7-tetrahydro-1H-cyclopenta[b]pyridin-5-yl)urea] | 0.91 µM
CC(C)CN(C(=O)Nc1ccc(F)c(F)c1)C1CCc2[nH]c(=O)cc(C(F)(F)F)c21 (stereo not drawn) [Compound 5, 3-(3,4-Difluorophenyl)-1-isobutyl-1-(2-oxo-4-(trifluoromethyl)-2,5,6,7-tetrahydro-1H-cyclopenta[b]pyridin-5-yl)urea] | 1.1 µM
O=C(Nc1ccc(F)c(Cl)c1)N(CCCO)C1CCCc2[nH]c(=O)c3ccccc3c21 (stereo not drawn) [Compound 7, 3-(3-Chloro-4-fluorophenyl)-1-(3-hydroxypropyl)-1-(6-oxo-1,2,3,4,5,6-hexahydrophenanthridin-1-yl)urea] | 0.75 µM
CC(C)CN(C(=O)Nc1ccc(F)c(Cl)c1)C1CCCc2[nH]c(=O)c3ccccc3c21 (stereo not drawn) [Compound 8, 3-(3-Chloro-4-fluorophenyl)-1-isobutyl-1-(6-oxo-1,2,3,4,5,6-hexahydrophenanthridin-1-yl)urea] | 0.47 µM

Same assay, conditions: Hepatitis B virus, HepDE19, 168 h, read-out: DE-19bDNA EC50 (uM), inhibition of rcDNA formation in HepDE19 cells (HepG2 derived), Tet-free medium, 7 day incubation, Quantigene 2.0 bDNA readout, top concentration 25 μM

SMILES | EC50
CN(C(=O)N1Cc2ccc(C(F)(F)F)cc2C1)C1CNCc2[nH]c(=O)c3cc(F)c(F)cc3c21 (single isomer, unassigned) [Compound 231, N-(8,9-Difluoro-6-oxo-1,2,3,4,5,6-hexahydrobenzo[c][1,7]naphthyridin-1-yl)-N-methyl-5-(trifluoromethyl)isoindoline-2-carboxamide] | ≥ 25 µM

Same assay, conditions: inhibition of rcDNA formation in HepDE19 cells (HepG2 derived), Tet-free medium, 7 day incubation, Quantigene 2.0 bDNA readout, top concentration 25 μM; read-out: DE-19bDNA EC50

SMILES | EC50
CN(C(=O)N1Cc2ccc(F)cc2C1)C1CNCc2[nH]c(=O)c3cc(F)c(F)cc3c21 (single isomer, unassigned) [Compound 224, N-(8,9-Difluoro-6-oxo-1,2,3,4,5,6-hexahydrobenzo[c][1,7]naphthyridin-1-yl)-5-fluoro-N-methylisoindoline-2-carboxamide] | ≥ 25 µM
CN(C(=O)N1Cc2ccc(F)cc2C1)C1CNCc2[nH]c(=O)c3cc(F)c(F)cc3c21 (single isomer, unassigned) [Compound 225, N-(8,9-Difluoro-6-oxo-1,2,3,4,5,6-hexahydrobenzo[c][1,7]naphthyridin-1-yl)-5-fluoro-N-methylisoindoline-2-carboxamide] | 3.4 µM
CN(C(=O)N1Cc2ccc(Cl)cc2C1)C1CNCc2[nH]c(=O)c3cc(F)c(F)cc3c21 (single isomer, unassigned) [Compound 227, 5-Chloro-N-(8,9-difluoro-6-oxo-1,2,3,4,5,6-hexahydrobenzo[c][1,7]naphthyridin-1-yl)-N-methylisoindoline-2-carboxamide] | 12 µM
CN(C(=O)N1Cc2ccc(Br)cc2C1)C1CNCc2[nH]c(=O)c3cc(F)c(F)cc3c21 (single isomer, unassigned) [Compound 228, 5-Bromo-N-(8,9-difluoro-6-oxo-1,2,3,4,5,6-hexahydrobenzo[c][1,7]naphthyridin-1-yl)-N-methylisoindoline-2-carboxamide] | 15 µM
CN(C(=O)N1Cc2ccc(Br)cc2C1)C1CNCc2[nH]c(=O)c3cc(F)c(F)cc3c21 (single isomer, unassigned) [Compound 229, 5-Bromo-N-(8,9-difluoro-6-oxo-1,2,3,4,5,6-hexahydrobenzo[c][1,7]naphthyridin-1-yl)-N-methylisoindoline-2-carboxamide] | 6.7 µM
CNc1nc2c(c3cc(F)c(F)cc13)C(N(C)C(=O)Nc1ccc(F)c(C(F)F)c1)COC2 (single isomer, unassigned) [Compound 235, 1-(8,9-Difluoro-6-(methylamino)-1,4-dihydro-2H-pyrano[3,4-c]isoquinolin-1-yl)-3-(3-(difluoromethyl)-4-fluorophenyl)-1-methylurea] | 1.81 µM
CNc1nc2c(c3cc(F)c(F)cc13)C(N(C)C(=O)Nc1ccc(F)c(C(F)F)c1)COC2 (single isomer, unassigned) [Compound 236, 1-(8,9-Difluoro-6-(methylamino)-1,4-dihydro-2H-pyrano[3,4-c]isoquinolin-1-yl)-3-(3-(difluoromethyl)-4-fluorophenyl)-1-methylurea] | 0.01 µM
CN(C(=O)Nc1ccc(F)c(C(F)F)c1)C1COCc2nc(NCCO)c3cc(F)c(F)cc3c21 (single isomer, unassigned) [Compound 237, 1-(8,9-Difluoro-6-((2-hydroxyethyl)amino)-1,4-dihydro-2H-pyrano[3,4-c]isoquinolin-1-yl)-3-(3-(difluoromethyl)-4-fluorophenyl)-1-methylurea] | 2.62 µM
CN(C(=O)Nc1ccc(F)c(C(F)F)c1)C1COCc2nc(NCCO)c3cc(F)c(F)cc3c21 (single isomer, unassigned) [Compound 238, 1-(8,9-Difluoro-6-((2-hydroxyethyl)amino)-1,4-dihydro-2H-pyrano[3,4-c]isoquinolin-1-yl)-3-(3-(difluoromethyl)-4-fluorophenyl)-1-methylurea] | 0.02 µM
CNc1nc2c(c3cc(F)c(F)cc13)C(N(C)C(=O)Nc1ccc(F)c(Cl)c1)COC2 (single isomer, unassigned) [Compound 241, 3-(3-Chloro-4-fluorophenyl)-1-(8,9-difluoro-6-(methylamino)-1,4-dihydro-2H-pyrano[3,4-c]isoquinolin-1-yl)-1-methylurea] | 2.38 µM
CNc1nc2c(c3cc(F)c(F)cc13)C(N(C)C(=O)Nc1ccc(F)c(Cl)c1)COC2 (single isomer, unassigned) [Compound 242, 3-(3-Chloro-4-fluorophenyl)-1-(8,9-difluoro-6-(methylamino)-1,4-dihydro-2H-pyrano[3,4-c]isoquinolin-1-yl)-1-methylurea] | 0.02 µM
CN(C(=O)Nc1ccc(F)c(Cl)c1)C1COCc2nc(NCCO)c3cc(F)c(F)cc3c21 (single isomer, unassigned) [Compound 245, 3-(3-Chloro-4-fluorophenyl)-1-(8,9-difluoro-6-((2-hydroxyethyl)amino)-1,4-dihydro-2H-pyrano[3,4-c]isoquinolin-1-yl)-1-methylurea] | 4.2 µM
CN(C(=O)Nc1ccc(F)c(Cl)c1)C1COCc2nc(NCCO)c3cc(F)c(F)cc3c21 (single isomer, unassigned) [Compound 246, 3-(3-Chloro-4-fluorophenyl)-1-(8,9-difluoro-6-((2-hydroxyethyl)amino)-1,4-dihydro-2H-pyrano[3,4-c]isoquinolin-1-yl)-1-methylurea] | 0.02 µM
CN(C(=O)Nc1ccc(F)c(C(F)F)c1)C1COCc2nc(NCCN)c3cc(F)c(F)cc3c21 (single isomer, unassigned) [Compound 247, 1-(6-((2-Aminoethyl)amino)-8,9-difluoro-1,4-dihydro-2H-pyrano[3,4-c]isoquinolin-1-yl)-3-(3-(difluoromethyl)-4-fluorophenyl)-1-methylurea] | 0.08 µM
CN(C(=O)Nc1ccc(F)c(C(F)F)c1)C1COCc2nc(NCCN)c3cc(F)c(F)cc3c21 (single isomer, unassigned) [Compound 248, 1-(6-((2-Aminoethyl)amino)-8,9-difluoro-1,4-dihydro-2H-pyrano[3,4-c]isoquinolin-1-yl)-3-(3-(difluoromethyl)-4-fluorophenyl)-1-methylurea] | 3.2 µM
CN(C(=O)Nc1ccc(F)c(Cl)c1)C1COCc2nc(NCCN)c3cc(F)c(F)cc3c21 (single isomer, unassigned) [Compound 249] | 8.3 µM
CN(C(=O)Nc1ccc(F)c(Cl)c1)C1COCc2nc(NCCN)c3cc(F)c(F)cc3c21 (single isomer, unassigned) [Compound 250] | 0.27 µM

Same assay, conditions: read-out: DE-19bDNA EC50; inhibition of rcDNA formation in HepDE19 cells (HepG2 derived), Tet-free medium, 7 day incubation, Quantigene 2.0 bDNA readout, top concentration 25 μM

SMILES | EC50
CN(C(=O)N1Cc2ccc(C(F)(F)F)cc2C1)C1CNCc2[nH]c(=O)c3cc(F)c(F)cc3c21 (single isomer, unassigned) [Compound 232, N-(8,9-Difluoro-6-oxo-1,2,3,4,5,6-hexahydrobenzo[c][1,7]naphthyridin-1-yl)-N-methyl-5-(trifluoromethyl)isoindoline-2-carboxamide] | 20 µM
